From paper PMC9788509, “Arginine Homopeptide of 11 Residues as a Model of Cell-Penetrating Peptides in the Interaction with Bacterial Membranes” (Membranes, 2022)

Tested on: blood samples obtained from a healthy individual
Format: cell-based
Procedure: The hemolytic activity of the peptides was obtained, according to a previously described procedure. Briefly, blood samples obtained from a healthy individual were centrifuged at 2000 g for 10 min at 4 °C and then washed with PBS 1X three times. The supernatant was diluted with PBS 1X until reaching a concentration of 6 × 10^8 cells/mL. Assays were performed in duplicate with the peptides at concentrations of 5 and 50 µM, including AMP from Bothrops asper. Triton X-100 (Sigma Aldrich) at 0.5% was used as positive control and PBS 1X as negative control. The assay is performed by mixing 65 µL of the cell suspension with 65 µL of each peptide at the indicated concentrations, and 65 µL of each control, incubating at 37 °C for 1 h. The samples are centrifuged at 3000 g for 5 min; 80 µL of supernatant is taken and placed in a 96-well plate together with 80 µL of milliQ water to finally measure its absorbance at 540 nm.
Hemolysis is calculated according to Equation (1). (1) %Hemolysis=[…]

triton X-100
Hemolytic activity: hemolysis was only observed
